Earlier results as cited in patent publication US20100273825A1, “SOLID PHARMACEUTICAL COMPOSITION CONTAINING SOLIFENACIN AMORPHOUS FORM” (ASTELLAS PHARMA INC., priority 2009, published 2010).

Target: M3 receptors (Homo sapiens, UniProt P20309)
Conditions: M3 in smooth muscles, gland tissues; M2 in the heart

Chain of M3 receptors (P20309 whole entry): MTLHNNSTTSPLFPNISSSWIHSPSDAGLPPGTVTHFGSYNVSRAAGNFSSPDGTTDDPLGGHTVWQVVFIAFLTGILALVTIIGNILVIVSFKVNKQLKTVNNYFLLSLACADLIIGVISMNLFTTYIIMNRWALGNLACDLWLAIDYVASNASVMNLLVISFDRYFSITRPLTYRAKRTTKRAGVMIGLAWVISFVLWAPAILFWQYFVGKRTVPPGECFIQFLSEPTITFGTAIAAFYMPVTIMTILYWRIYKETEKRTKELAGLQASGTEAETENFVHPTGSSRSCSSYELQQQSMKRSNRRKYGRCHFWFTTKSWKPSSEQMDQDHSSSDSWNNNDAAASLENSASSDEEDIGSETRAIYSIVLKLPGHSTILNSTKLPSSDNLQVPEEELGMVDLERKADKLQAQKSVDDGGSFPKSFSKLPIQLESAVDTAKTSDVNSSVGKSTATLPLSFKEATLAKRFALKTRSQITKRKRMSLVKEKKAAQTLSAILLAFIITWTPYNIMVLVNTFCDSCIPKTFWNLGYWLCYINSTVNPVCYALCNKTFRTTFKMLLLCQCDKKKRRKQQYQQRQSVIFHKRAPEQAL

Selectivity for M3 receptors in comparison with M2 receptors: high selectivity
Compound: O=C(O[C@H]1CN2CCC1CC2)N1CCc2ccccc2[C@@H]1c1ccccc1 [solifenacin, (R)-quinuclidin-3-yl (S)-1-phenyl-1,2,3,4-tetrahydroisoquinoline-2-carboxylate]
